Test system: radiation-induced emesis in the ferret
Experiment: radiation-induced emesis in the ferret
Type: in vivo
Details: 0.1 mg/kg s.c., compound administered 1.5 hours prior to irradiation (whole body, 2 Grey)
Protocol: In this model of emesis the onset of retching and vomiting occurs approximately 20 minutes after whole body irradiation (2 Grey=200 Rads). The test compound is administered (e.g. i.p, p.o., i.v., s.c) immediately after irradiation and its effect on emesis determined by comparison with appropriate controls. […] Alternatively, the test compounds may be administered before irradiation or before treatment with an emetogen, for example 1.5, 3 or 6 hours before irradiation.

How did the “inhibition of radiation-induced emesis” value turn out when `CCOc1ccc(-n2nnnc2C(F)(F)F)cc1CN[C@H]1CCCN[C@H]1c1ccccc1.Cl.Cl` [Example 1, [2-Ethoxy-5(5-trifluoromethyl-tetrazol-1-yl)-benzyl]-([2S,3S]-2-phenylpiperidine-3-yl)amine dihydrochloride] was run?
Its value is “inhibited radiation-induced emesis”.
